Data from a melting point compilation (Tetko et al.).

Structure (SMILES) | melting point
O=Cc1ccc2ccc3cccc4ccc1c2c34 | 127 °C
NC(=NO)c1c(Cl)cccc1Cl | 163 to 166 °C
Nc1c([N+](=O)[O-])ccc2ncccc12 | 272 to 273 °C
Cn1cc(-c2ccccc2)c(=O)c(-c2cccc(C(F)(F)F)c2)c1 | 154 °C
O=C1/C(=N/Nc2ccncc2)C(C(F)(F)F)=NN1c1ccccc1 | 177 °C
Cc1ccc(O)c(C=O)c1 | 56 °C
COC1=C(O)C(=O)C(C)=C(O)C1=O | 202 °C
CC(=O)NC1C(Oc2ccc3c(C)cc(=O)oc3c2)OC(CO)C(O)C1O (stereo unspecified) | 208 to 210 °C
CN1CCOc2cc(C=O)ccc21 | 70 to 71 °C
CC(=O)C1=C(C)C(C)(O)NC1=O (stereo unspecified) | 172 to 174 °C
CCCCCCCC(=O)OC | -40 °C
Clc1cc2c(Cl)cccc2c(Cl)c1Cl | 141 °C
CC(C)CCCC(C)C1CCC2C3CC(Cl)C4(O)CC(=O)CCC4(C)C3CCC12C (stereo unspecified) | 214 °C
Oc1cc(C(F)(F)F)nc2ccc(C(F)(F)F)cc12 | 274 to 277 °C
Nc1cccc(Cn2cncn2)c1 | 88 to 89 °C
O=C(O)c1cccc(Cl)c1F | 177 °C
CCOC(=O)C1=C(C)NC(=O)NC1c1ccccc1C(F)(F)F (stereo unspecified) | 203 °C
C#CC(C)(CC)OC(N)=O (stereo unspecified) | 55.8 °C
CC(C)CCCC(C)C1CCC2C3CCC4=CC(O)CCC4(C)C3CCC12C (stereo unspecified) | 132 °C
CC(C)(C)N(NC(=O)c1ccccc1)C(=O)c1cccc(F)c1 | 176 °C
c1ccc(P(CCCCCP(c2ccccc2)c2ccccc2)c2ccccc2)cc1 | 47 °C
O=C(O)c1c(F)c(F)c(F)c(C(=O)O)c1F | 209 to 213 °C
NC(=S)Nc1ccc(F)cc1F | 163 to 168 °C
N#CSc1ccc([N+](=O)[O-])c(C(=O)O)c1 | 156 to 160 °C
Brc1ccc2[nH]c3ccccc3c2c1 | 195 to 197 °C
N#Cc1c(C(F)(F)F)cc(-c2ccccc2)nc1S | 181 °C

Structure (SMILES) | melting point
Cc1cccc(Cl)c1C=O | 37 °C
O=C(O)CCc1c(Cl)cccc1Cl | 95 to 97 °C
CN(C)c1ccn2c(=O)c3ccccc3cc2c1 | 157 °C
Cn1cc(Br)c(-c2cccc(N)c2)n1 | 95 to 97 °C
CC(C)(C)N(CCO)CCO | 42 °C
CCC(Br)(CC)C(N)=O | 67 °C
N#Cc1c(Cl)cccc1[N+](=O)[O-] | 121 °C
O=C(O)c1cc(C(=O)O)c(C(=O)O)cc1C(=O)O | 281 to 284 °C
CC(C)=CCC(C#N)(CC=C(C)C)C(=O)O | 70 to 71 °C
FC(F)C(F)(F)Cl | -117 °C
COC(=O)C=P(c1ccccc1)(c1ccccc1)c1ccccc1 | 164 to 169 °C
N#Cc1c(F)cc(Cl)cc1F | 102 °C
COc1ccc[nH]c1=O | 115 °C
O=C(C=Cc1ccc(C=CC(=O)Nc2ccccc2)cc1)Nc1ccccc1 | 292 to 294 °C
CC1=NNC(=O)C1=NNc1cccc(F)c1 | 218 °C
Cc1ccc(C(=O)NS(=O)(=O)c2ccc(N)cc2)cc1C | 222 °C
N#C/C(=N\Nc1ccc(Cl)cc1)c1nc2ccccc2s1 | 188 °C
OCC1OC(O)C(O)C1O (stereo unspecified) | 88 to 92 °C
O=C1CCCN1c1ccc(C(F)(F)F)cc1 | 134 to 136 °C
Cc1cc(C(F)(C(F)(F)F)C(F)(F)F)ccc1NC(=O)c1cccc(I)c1C(=O)NC(C)(C)CS(C)(=O)=O | 218 °C
CC(C)NC(C)C | -61 °C
CN(c1ccc2cc3ccc4c(c3nc2c1)COCN4)S(C)(=O)=O | 300 °C
O=S(=O)(O)CCNC1CCCCC1 | 320 °C
CC(=O)Nc1ccc(I)cc1C(F)(F)F | 134 to 136 °C
CCCCCCCC1CCCC1 | -53 °C
Ic1ccc(Cn2cncn2)cc1 | 82 to 84 °C

Structure (SMILES) | melting point
CC(=O)OC1CC2C3CC=C4CC(O)CCC4(C)C3CCC2(C)C1C(C)C1CCC(C)CN1 (stereo unspecified) | 210 °C
CN(C)CCC(c1ccc(Br)cc1)c1ccccn1 (stereo unspecified) | < 25 °C
O=C(O)C1(C(=O)O)C2CCCCCCC21 (stereo unspecified) | 217 °C
CC(C)(C)c1ccc(-c2nnc(S)n2Cc2ccco2)cc1 | 156 to 158 °C
COc1ccc2c(=O)n3ccccc3cc2c1 | 130 °C
Clc1ccc(-c2c(Cl)cc(Cl)c(Cl)c2Cl)cc1Cl | 107 °C
c1csc(SSc2cccs2)c1 | 55 °C
COc1cc(CC(=O)O)cc(Br)c1O | 183 to 185 °C
O=C(Cl)OCC1c2ccccc2-c2ccccc21 | 63 °C
CC(=O)OC1C(C2COC(C)(C)O2)OC2OC(C)(C)OC21 (stereo unspecified) | 60 to 62 °C
COC(=O)C1=C(C(=O)OC)C(=O)C(=C2C=Cc3ccccc3N2)C1=O | 362 to 363 °C
Cc1nn(C)c(C)c1N=C=O | 36 to 40 °C
CCCCCCCCCBr | -29 °C
CC(C)C(O)C1(C)CCC(C(=O)O)C(C)(C)O1 (stereo unspecified) | 115 °C
CCC(C)(O)C(=O)O (stereo unspecified) | 74 °C
CC1=NN(c2ccccc2)C(=O)C1C(c1ccc(O)cc1)C1C(=O)N(c2ccccc2)N=C1C (stereo unspecified) | 241 °C
O=[N+]([O-])c1ccc(Cl)c(N=C=S)c1 | 67 to 70 °C
O=C(n1ccnc1)C(F)(F)C(F)(F)C(F)(F)F | 11 °C
C=C1CC(=CC)C(=O)OC2CCN3CC=C(COC(=O)C1(C)O)C23 (stereo unspecified) | 218 °C
C[C@]12CCC(=O)C(Br)[C@H]1CC[C@@H]1[C@@H]2CC[C@]2(C)C(O)CC[C@@H]12 (stereo partly specified) | 143 °C
CCCCOP(=O)(O)OCCCC | -13 °C
CC(=O)Nc1ccc(N=Nc2cc(C(C)C)c(N=Nc3ccc(NC(C)=O)cc3)cc2C)cc1 | 284 °C
N#Cc1c(NC(=O)CCl)sc2c1CCCC2 | 179 to 180 °C
O=C(O)c1ccccc1-n1cccc1 | 104 °C
O=C(C1=NOC2C(=O)N(c3cc(Cl)ccc3Cl)C(=O)C12)c1ccccc1 (stereo unspecified) | 185 °C
CC(=O)c1ccc(N2C(=O)C=CC2=O)cc1 | 156 °C

Structure (SMILES) | melting point
N=C1NC(=O)CS1 | 249 °C
CC12CCc3c(ccc4cc(O)ccc34)C1CCC2=O (stereo unspecified) | 258 °C
Nc1ccc(F)c(F)c1 | 21 °C
CCOC(=O)C1=C(C)NC(=O)NC1c1ccccc1 (stereo unspecified) | 180 °C
Nc1cc2ccccc2cc1O | 235 °C
N#C/C(=C\c1ccc(Cl)cc1)c1nc(-c2cccc3ccccc23)cs1 | 130 °C
Cc1cccc([N+](=O)[O-])c1C | 15 °C
O=C(O)c1ccc(-c2cccnc2)cc1 | 271 to 274 °C
CCC1(c2ccccc2)C(=O)NC(=O)N(C)C1=O (stereo unspecified) | 176 °C
CC(=O)Nc1ccc(N=Nc2ccc(N=Nc3ccc(/N=N/c4ccc(NC(C)=O)cc4)cc3)cc2)cc1 | 245 to 248 °C
ClC(Cl)(Cl)CC(Cl)(Cl)Cl | -27 °C
O=C(Cl)c1ncoc1-c1ccccc1 | 74 to 79 °C
Nc1cc(Cl)c([N+](=O)[O-])cc1Cl | 155 °C
OCC1OC(Oc2c[nH]c3ccc(Br)c(Cl)c23)C(O)C(O)C1O (stereo unspecified) | 249 to 251 °C
CC(C)(OO)c1ccccc1 | -9 °C
CN1CCCN(c2ccc(CO)cc2)CC1 | 97 °C
CCOC(=O)c1nn(-c2ccc(Cl)cc2Cl)c(-c2ccc([N+](=O)[O-])cc2)c1S(=O)(=O)c1ccccc1 | 118 °C
O=C1OC(=O)C2=C1Cc1ccccc1C2 | 241 to 247 °C
Cc1ccc(C(O)C2C(=O)N(c3ccccc3)N=C2C(F)(F)F)cc1 (stereo unspecified) | 257 °C
CCOc1ccc(N)c([N+](=O)[O-])c1 | 110 to 114 °C
CC(C)(C)NC(=O)COC(=O)c1ccccc1 | 112 °C
Clc1ncc(Br)cn1 | 79 °C
O=C1CSCC(=O)O1 | 94 to 97 °C
O=S(=O)(Cl)Cc1ccccc1 | 92 °C
CC1(O)CCC2C3CCC4=CC(=O)CCC4(C)C3(F)C(O)CC21C (stereo unspecified) | 270 °C
O=C(O)c1cccc(N2CCOCC2)n1 | 127 to 129 °C

Structure (SMILES) | melting point
CC1=CC(C)N=N1 (stereo unspecified) | 108 °C
O=C1C(=O)N(c2ccccc2)c2ccccc21 | 141 °C
CCCCCCCCCC(=O)CCCCCC | 37 °C
O=[N+]([O-])c1ccc(C=Cc2cccc(/C=C\c3ccc([N+](=O)[O-])cc3[N+](=O)[O-])c2)c([N+](=O)[O-])c1 | 243 °C
CC(C)(C)OC(=O)N1CCCC(Oc2ccccc2[N+](=O)[O-])C1 (stereo unspecified) | 74 to 75 °C
Cc1ccc(N)cc1I | 36 °C
CC(C)(C)OC(=O)c1n[nH]c2nc(F)ccc12 | 166 to 168 °C
CNC(=O)Oc1ccc(SC)c(C)c1 | 118 °C
CC1C(=O)C23C4CC5C(C)(C)CCC(=O)C5(C)C2C(=O)CC1C3OC(C)(C)O4 (stereo unspecified) | 197 °C
O=Cc1c[nH]nc1-c1cccs1 | 102 to 103 °C
CC12CCCC1C1CC=C3CC(O)CCC3(C)C1CC2 (stereo unspecified) | 136 °C
CCc1cc2ccccc2ccc1=O | 49 °C
CCC(O)(CC)C(=O)O | 78 to 82 °C
O=[N+]([O-])c1ccc2ccccc2c1O | 123 to 125 °C
O=[N+]([O-])c1ccc(C(Cl)C(Cl)c2ccc(C(Cl)C(Cl)c3ccc([N+](=O)[O-])cc3[N+](=O)[O-])cc2)c([N+](=O)[O-])c1 (stereo unspecified) | 92 to 99 °C
CCc1ccc(Cc2ccccc2)cc1 | -24 °C
CNC(=O)C=C(C)OP(=O)(OC)OC | 55 °C
CCOC(=O)C(C(C)=O)C(=O)/C=C/c1ccc(OC)c(OCc2ccccc2)c1 (stereo unspecified) | 207 to 208 °C
c1ccc(-c2cc(-c3ccccc3)cc(-c3ccccc3)c2)cc1 | 172 to 175 °C
Oc1ccc(Nc2ccc3ccccc3c2)cc1 | 140 °C
NCCCNCCCN | -14 °C
Cc1cc2c(c(C)c1C)CC2=O | 86 °C
